Measurements reported in patent US20210290732A1, “GLP-1R and GCGR Agonists, Formulations, and Methods of Use” (Spitfire Pharma LLC, priority 2020, published 2021).
“And” between values parts separate entries of the source, which are not always exact repeats. Identical values can stand only once. Like-named read-outs stand apart in the source and are kept apart here.

What was measured:
GCGR = GCGR (Homo sapiens, UniProt P47871); assay: cAMP receptor activation assay, human GCGR cloned into CHO cells (DiscoverX LeadHunter / cAMP Hunter); assay type: cell-based; set-up: host or cells: CHO-K1; conditions: for EC50: cAMP, CHO cells
GCGR, sequence (P47871 26-477): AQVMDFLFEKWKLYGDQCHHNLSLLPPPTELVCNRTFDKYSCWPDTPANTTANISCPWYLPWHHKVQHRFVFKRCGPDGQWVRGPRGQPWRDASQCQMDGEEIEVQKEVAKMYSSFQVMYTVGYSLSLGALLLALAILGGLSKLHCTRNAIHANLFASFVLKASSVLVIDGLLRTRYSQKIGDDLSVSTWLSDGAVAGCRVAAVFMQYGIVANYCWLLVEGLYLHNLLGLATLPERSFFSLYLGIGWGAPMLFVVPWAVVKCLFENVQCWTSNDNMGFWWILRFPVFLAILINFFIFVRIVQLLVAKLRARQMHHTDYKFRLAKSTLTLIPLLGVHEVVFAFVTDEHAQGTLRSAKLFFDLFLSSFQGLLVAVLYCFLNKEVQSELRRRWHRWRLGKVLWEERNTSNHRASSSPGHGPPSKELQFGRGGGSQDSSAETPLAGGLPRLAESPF
Description: (§1) Cellular assays were carried out using standard cellular assays (DiscoveRx, LeadHunter assays) using readout of cAMP stimulation or arrestin activation. Compounds were weighed precisely in an amount of approximately 1 mg and shipped to DiscoverX (Fremont, Calif.) for dilution and assay. […] Assays were carried out in the presence of 0.1% ovalbumin. […] Use of 0.1% ovalbumin can avoid this problem.
(§2) Assays were carried out in the presence of 0.1% ovalbumin. […] Use of 0.1% ovalbumin can avoid this problem.
(§3) Receptor activation assays were performed at DiscoverX laboratories (Fremont, Calif.) using human GLP-1R and GCGR cloned into Chinese Hamster Ovary (CHO) cells (LeadHunter Discovery Services; assay product 86-0007D cAMP Hunter™ using huGLP1R and huGCGR; whole cell cAMP accumulation assays; cell lines used were cAMP Hunter™ CHO-K1 GCGR Gs Cell Line, catalog 95-0042C2 and cAMP Hunter™ CHO-K1 GLP1 Gs Cell Line, catalog 95-0062C2; readout of accumulated cAMP was made using readout HitHunter cAMP XS+ assay). Cell lines are maintained at DiscoverX and were incubated with test agents for 30 m at 37° C. for accumulation of cAMP. […] Results described herein are from single assays performed on cells in duplicate and data were replotted in Prism 5 to provide pEC50 (SE) data.
(§4) In vitro data are presented as pEC50 (SE) determined in Prism 5 by nonlinear regression analysis of the raw fluorescence data normalized by corresponding response to internal standards (see Supporting Information for data plots).

human GLP-1R = molecular target: T1, human GLP-1R (Homo sapiens, UniProt P43220); assay: cAMP receptor activation assay, human GLP-1R cloned into CHO cells (DiscoverX LeadHunter / cAMP Hunter); assay type: cell-based; conditions: for Selectivity Ratio GLP-1R vs GCGR: SR = GCGR EC50/GLP-1 EC50, 0.1% BSA
T1 construct: host or cells: CHO-K1
T1 sequence (P43220 24-463): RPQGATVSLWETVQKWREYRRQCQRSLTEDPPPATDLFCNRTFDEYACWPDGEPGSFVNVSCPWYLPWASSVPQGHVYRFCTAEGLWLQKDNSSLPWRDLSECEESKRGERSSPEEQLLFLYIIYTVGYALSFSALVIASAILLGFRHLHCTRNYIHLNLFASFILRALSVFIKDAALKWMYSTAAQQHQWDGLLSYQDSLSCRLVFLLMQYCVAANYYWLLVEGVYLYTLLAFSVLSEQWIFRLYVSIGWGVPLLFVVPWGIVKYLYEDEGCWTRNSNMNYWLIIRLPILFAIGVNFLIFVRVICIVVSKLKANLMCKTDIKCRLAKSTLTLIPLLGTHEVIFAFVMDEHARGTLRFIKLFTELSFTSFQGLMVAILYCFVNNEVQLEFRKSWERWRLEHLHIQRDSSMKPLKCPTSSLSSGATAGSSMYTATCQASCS
Description: as §1, §2, §3, §4

[1] = pharmacokinetics in Gottingen minipigs (cassette sc dosing, 20 nmol/kg); assay type: in vivo, Gottingen minipig; conditions: 20 nmol/kg sc, analogue 2 at 4 h, 4 at 2-12 h, 5 at 2, 12, 24 h
Excerpt: This study uses a cassette style dosing, to minimize large animal usage, but with injection subcutaneously at separate sites to preclude each compound's influencing uptake of another compound. A total of two male Gottingen minipigs were assigned to study. The animals were pair housed in pens on raised floor caging. The animals weighed between approximately 11-15 kg at transfer and approximately 5-8 months of age. The same animals were to be used for multiple phases, following a minimum 1-week washout period. To facilitate dosing and to ensure animal safety during the dosing procedure, animals were sedated with Telazol (IM, 4-6 mg/kg) prior to dosing. Dosing was subcutaneous via bolus injection between the skin and underlying layers of tissue in the ventral region of the animal. A total of […] sites were used for each phase with different compounds dosed at each of the 4 sites. Compounds are formulated in saline containing 0.2% BSA […] at pH 3.5. Each stock solution was diluted with normal saline (pH 7.4) to the required final conc and sterile filtered. Dosing is at 20 nmol/kg. Blood samples were collected pre-dose and at 2, 4, 6, 8, 12, 24, 36, 48, 72 and 96-hours post-dose. At each blood collection time point a 1 mL sample is taken from the jugular vein into K2EDTA tubes on ice before processing to plasma by centrifugation. The plasma samples containing the 4 test compounds were sent to Climax Labs for separation and quantitation by LC-MS/MS as noted below (2.5.3).
Analysis was carried out at Climax Laboratories (San Jose, Calif.) on an API-4000 Mass Spectrometer, ESI positive, MRM scan. Samples were loaded on a Shimadzu HPLC/CTC Autosampler with an ACE C4 column (2.1×50 mm, 5 μm). Elution was by gradient from aqueous 0.5% formic acid, 5 mM NH4OAc to 0.5% formic acid in CH3CN/H2O (9:1). […] After transfer to a 96 well plate, a 40 μL sample was injected and the individual compound peaks were quantitated with standard curves. […] The quantitation limit is 1-2 ng/mL, depending on analog structure.

DIO-NASH mice = assay: DIO-NASH mouse study, 12 weeks of QD dosing; assay type: in vivo
Description: All mice entering the experiment have been pre-biopsied, stratified based on liver biopsy (only animals with fibrosis 1 or above and steatosis 2 or above are included) animals stratified into groups based on Col1a1 immunostaining. […] Body weight (BW) was measured daily for the entire study period, food intake daily for the first 14 days then weekly until study end. Terminal plasma was measured for ALT/AST/TG/TC levels. Terminal liver removal and sampling was carried out for pre to post NAFLD Activity Score (NAS; HE staining) including Fibrosis Stage (Picrosirius red, PSR). Terminal histology was carried out for steatosis, Col1a1 and galectin-3 quantitation. Terminal liver workup included TG+TC (extraction and measurement). Terminal liver biopsies were set up in: 1) 4% PFA for histology, 2) fresh frozen liver for biochemistry, 3) fresh frozen liver for RNA extraction and RNAseq.

[2] = CMC of Polysorbate 80 in F58 buffer pH 7.7 with added ALT-801 by surface tensiometry; assay type: physicochemical
Excerpt: CMC shifts are simply calculated as CMC in the presence of the ALT-801 less the CMC for the surfactant alone in solution.

[3] = cAMP, CHO cells, 0.1% BSA containing buffers, read-out: pEC50 (SE) hu GLP-1 (converted)
[4] = 0.1% OVA containing buffers, read-out: EC50 hGCGR

**Q.** For `CCCCCCCCCCO[C@@H]1O[C@H](C(=O)NCCCC[C@H](NC(=O)[C@@H](NC(=O)[C@H](Cc2ccccc2)NC(=O)[C@H](CCC(=O)O)NC(=O)[C@@H]2CCCCNC(=O)CC[C@H](NC(=O)[C@H](CC(=O)O)NC(=O)[C@H](CC(C)C)NC(=O)[C@H](Cc3ccc(O)cc3)NC(=O)[C@H](CCCCN)NC(=O)[C@H](CO)NC(=O)[C@H](Cc3ccc(O)cc3)NC(=O)[C@H](CC(=O)O)NC(=O)[C@H](CO)NC(=O)[C@@H](NC(=O)[C@H](Cc3ccccc3)NC(=O)[C@@H](NC(=O)CNC(=O)[C@H](CCC(N)=O)NC(=O)C(C)(C)NC(=O)[C@@H](N)Cc3c[nH]cn3)[C@@H](C)O)[C@@H](C)O)C(=O)N[C@@H](CCC(N)=O)C(=O)N[C@@H](C)C(=O)N[C@@H](C)C(=O)N2)[C@@H](C)CC)C(=O)N[C@@H](Cc2c[nH]c3ccccc23)C(=O)N[C@@H](CC(C)C)C(=O)N[C@@H](CC(C)C)C(=O)N[C@@H](CCC(N)=O)C(=O)N[C@H](C(N)=O)[C@@H](C)O)[C@@H](O)[C@H](O)[C@H]1O` [analogue 2], which EC50 (GCGR; 0.1% BSA containing buffers, read-out: pEC50 (SE) huGCGR (converted)) is on record?
**A.** 20 pM

**Q.** And the “Selectivity Ratio GLP-1R vs GCGR” value (human GLP-1R)?
**A.** 2

**Q.** What about the EC50 (human GLP-1R; [3]) of the same compound?
**A.** 12.6 pM

**Q.** And the “plasma levels compared to liraglutide” value [1]?
**A.** Significantly higher plasma levels

**Q.** With `CCCCCCCCCCCCCCO[C@@H]1O[C@H](C(=O)N[C@@H](CCC(=O)NCCCC[C@H](NC(=O)[C@@H](NC(=O)[C@H](Cc2ccccc2)NC(=O)[C@H](CCC(=O)O)NC(=O)[C@@H]2CCCCNC(=O)CC[C@H](NC(=O)[C@H](CC(=O)O)NC(=O)[C@H](CC(C)C)NC(=O)[C@H](Cc3ccc(O)cc3)NC(=O)[C@H](CCCCN)NC(=O)[C@H](CO)NC(=O)[C@H](Cc3ccc(O)cc3)NC(=O)[C@H](CC(=O)O)NC(=O)[C@H](CO)NC(=O)[C@@H](NC(=O)[C@H](Cc3ccccc3)NC(=O)[C@@H](NC(=O)CNC(=O)[C@H](CCC(N)=O)NC(=O)C(C)(C)NC(=O)[C@@H](N)Cc3c[nH]cn3)[C@@H](C)O)[C@@H](C)O)C(=O)N[C@@H](CCC(N)=O)C(=O)N[C@@H](C)C(=O)N[C@@H](C)C(=O)N2)[C@@H](C)CC)C(=O)N[C@@H](Cc2c[nH]c3ccccc23)C(=O)N[C@@H](CC(C)C)C(=O)N[C@@H](CC(C)C)C(=O)N[C@@H](CCC(N)=O)C(=O)N[C@H](C(N)=O)[C@@H](C)O)C(=O)O)[C@@H](O)[C@H](O)[C@H]1O` [analogue 14] as the compound, how does the “GCGR activation potency (vs 4)” value (GCGR) read?
**A.** significantly weakened GCGR activation potency

**Q.** And the “Selectivity Ratio GLP-1R vs GCGR” value (human GLP-1R)?
**A.** 2

**Q.** And the EC50 (human GLP-1R; [3])?
**A.** 42.7 pM

**Q.** Which EC50 (GCGR; [4]) does the source give for `CC[C@H](C)[C@H](NC(=O)[C@H](Cc1ccccc1)NC(=O)[C@H](CCC(=O)O)NC(=O)[C@@H]1CCCCNC(=O)CC[C@H](NC(=O)[C@H](CC(=O)O)NC(=O)[C@H](CC(C)C)NC(=O)[C@H](Cc2ccc(O)cc2)NC(=O)[C@H](CCCCN)NC(=O)[C@H](CO)NC(=O)[C@H](Cc2ccc(O)cc2)NC(=O)[C@H](CC(=O)O)NC(=O)[C@H](CO)NC(=O)[C@@H](NC(=O)[C@H](Cc2ccccc2)NC(=O)[C@@H](NC(=O)CNC(=O)[C@H](CCC(N)=O)NC(=O)C(C)(C)NC(=O)[C@@H](N)Cc2c[nH]cn2)[C@@H](C)O)[C@@H](C)O)C(=O)N[C@@H](CCC(N)=O)C(=O)N[C@@H](C)C(=O)N[C@@H](C)C(=O)N1)C(=O)N[C@@H](CCCCNC(=O)[C@H]1O[C@@H](OCCCCCCCCCCCCCCCC(=O)O)[C@H](O)[C@@H](O)[C@@H]1O)C(=O)N[C@@H](Cc1c[nH]c2ccccc12)C(=O)N[C@@H](CC(C)C)C(=O)N[C@@H](CC(C)C)C(=O)N[C@@H](CCC(N)=O)C(=O)N[C@H](C(N)=O)[C@@H](C)O` [analogue 15] here?
**A.** 65 pM

**Q.** What about the EC50 (human GLP-1R; cAMP, CHO cells, 0.1% OVA containing buffers, read-out: pEC50 (SE) hu GLP-1 (converted)) of the same compound?
**A.** 38 pM

**Q.** What does the source list for `CC[C@H](C)[C@H](NC(=O)[C@H](Cc1ccccc1)NC(=O)[C@H](CCC(=O)O)NC(=O)[C@@H]1CCCCNC(=O)CC[C@H](NC(=O)[C@H](CC(=O)O)NC(=O)[C@H](CC(C)C)NC(=O)[C@H](Cc2ccc(O)cc2)NC(=O)[C@H](CCCCN)NC(=O)[C@H](CO)NC(=O)[C@H](Cc2ccc(O)cc2)NC(=O)[C@H](CC(=O)O)NC(=O)[C@H](CO)NC(=O)[C@@H](NC(=O)[C@H](Cc2ccccc2)NC(=O)[C@@H](NC(=O)CNC(=O)[C@H](CCC(N)=O)NC(=O)C(C)(C)NC(=O)[C@@H](N)Cc2c[nH]cn2)[C@@H](C)O)[C@@H](C)O)C(=O)N[C@@H](CCC(N)=O)C(=O)N[C@@H](C)C(=O)N[C@@H](C)C(=O)N1)C(=O)N[C@@H](CCCCNC(=O)[C@H]1O[C@@H](OCCCCCCCCCCCCCCCCCC(=O)O)[C@H](O)[C@@H](O)[C@@H]1O)C(=O)N[C@@H](Cc1c[nH]c2ccccc12)C(=O)N[C@@H](CC(C)C)C(=O)N[C@@H](CC(C)C)C(=O)N[C@@H](CCC(N)=O)C(=O)N[C@H](C(N)=O)[C@@H](C)O` [analogue 16]?
**A.** EC50 (GCGR; [4]): 86 pM; EC50 (human GLP-1R; 0.1% BSA in assay buffer, read-out: EC50 GLP-1R): 1270 pM

**Q.** For `CSc1ccc(C(=O)/C=C/c2cc(C)c(OC(C)(C)C(=O)O)c(C)c2)cc1` [elafibranor], which “body weight compared to NASH control (p≤0.001)” value (DIO-NASH mice; ALT-801 5 and 10 nmol/kg, elafibranor 78 μmol/kg, semaglutide 10 nmol/kg) is on record?
**A.** statistically significantly decreased body weight

**Q.** And the “NAFLD activity score (NAS) reduction compared to the start of treatment” value (DIO-NASH mice; NASH mice, 78 μmol/kg PO QD, 12 weeks)?
**A.** 42%

**Q.** And the “expression of cell death genes vs NASH vehicle control” value (DIO-NASH mice; NASH mice, liver RNAseq)?
**A.** No statistical differences

**Q.** What about the “expression of genes affecting fat usage and transport vs NASH vehicle control” value (DIO-NASH mice; NASH mice, liver RNAseq) of the same compound?
**A.** significantly lower GPAT2 (p<0.001) and GPAT4 (p<0.001)

**Q.** And the “expression of liver inflammation genes (FOSB, JUN, TLR4) vs NASH vehicle control” value (DIO-NASH mice; NASH mice, liver RNAseq)?
**A.** No statistically significant changes

**Q.** What about the “number of differentially expressed genes (liver RNA sequencing)” value (DIO-NASH mice; NASH mice, high dose ALT-801, elafibranor, semaglutide) of the same compound?
**A.** ~5800

**Q.** Which results are given for Polysorbate 80?
**A.** CMC Shift Due to ALT-801 ([2]; 5.0 mg/ml ALT-801): 5.16 mg/mL; Extent of Interaction mg PS80/mg ALT-801 ([2]; 5.0 mg/ml ALT-801): 1.03 mg/mg; Extent of Interaction moles PS80/molesALT-801 ([2]; 5.0 mg/ml ALT-801): 3.05 mole/mole; CMC Shift Due to ALT-801 ([2]; 10.0 mg/ml ALT-801): 10.32 mg/mL; Extent of Interaction mg PS80/mg ALT-801 ([2]; 10.0 mg/ml ALT-801): 1.03 mg/mg; Extent of Interaction moles PS80/molesALT-801 ([2]; 10.0 mg/ml ALT-801): 3.05 mole/mole; Polysorbate 80 CMC Value 5.0 mg/ml ALT-801, Average ([2]; F58 buffer pH 7.7, 5.0 mg/ml ALT-801): 5.34 mg/mL; Polysorbate 80 CMC Value 5.0 mg/ml ALT-801 ([2]; F58 buffer pH 7.7, 5.0 mg/ml ALT-801, single test): 5.35 mg/mL and 5.33 mg/mL; Polysorbate 80 CMC Value 10.0 mg/ml ALT-801, Average ([2]; F58 buffer pH 7.7, 10.0 mg/ml ALT-801): 10.50 mg/mL; Polysorbate 80 CMC Value 10.0 mg/ml ALT-801 ([2]; F58 buffer pH 7.7, 10.0 mg/ml ALT-801, single test): 10.49 mg/mL and 10.50 mg/mL; Polysorbate 80 CMC Valve No ALT-801, Average ([2]; F58 buffer pH 7.7, no ALT-801): 0.183 mg/mL; Polysorbate 80 CMC Valve No ALT-801 ([2]; F58 buffer pH 7.7, no ALT-801, single test): 0.182 mg/mL and 0.183 mg/mL; Extent of Interaction mg PS80/mg ALT-801 ([2]; […] ALT-801): 1.03 mg/mg; Extent of Interaction moles PS80/molesALT-801 ([2]; […] ALT-801): 3.05 mole/mole
